Measurements reported in patent US20090239760A1, “Method for the Identification of New Leads for Drug Candidates” (UNIVERSITY OF BASEL, priority 2006, published 2009).

Assays:
Fc-MAG(d1-3) = target: T1, Fc-MAG(d1-3) (Mus musculus, UniProt P20917); assay: surface plasmon resonance (BIACORE 3000), Fc-MAG(d1-3) immobilized by protein A; format: binding, murine
T1 sequence (P20917 20-325 limits assumed): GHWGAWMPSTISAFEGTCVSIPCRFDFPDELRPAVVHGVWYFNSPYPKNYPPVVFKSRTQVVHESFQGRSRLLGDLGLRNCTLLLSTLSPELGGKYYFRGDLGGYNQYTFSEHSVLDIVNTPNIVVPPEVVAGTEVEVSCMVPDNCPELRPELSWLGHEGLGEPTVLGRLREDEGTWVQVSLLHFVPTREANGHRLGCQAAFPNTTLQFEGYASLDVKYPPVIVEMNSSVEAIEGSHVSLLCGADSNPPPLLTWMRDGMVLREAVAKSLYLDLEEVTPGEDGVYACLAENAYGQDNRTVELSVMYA
Protocol: For the in situ click chemistry experiment (Lewis, 2002; Bourne, 2004; […], 2005), Fc-MAG(d1-3) (Crocker, 1996) (8.77 μM) was incubated with a mixture of the four substituted first-site ligands 14a-d (each 40 μM) and the two substituted second-site ligands 22, 26 (each 800 μM) in phosphate buffer (pH 7.4) at 37° C. for 24 h. The different concentrations of the first- and second-site ligands reflect their affinities in the low micro- and millimolar range. […] To exclude that false positives are formed during incubation, two control experiments were performed. In the first, MAG was replaced by bovine serum albumin. In the second, no protein was added. In both experiments, no triazole formation could be observed. The protein included the Fc portion of human immunoglobulin IgG1 and the three N-terminal domains of murine MAG (for its preparation, see Crocker & Kelm (1996)). […] The KD analyses were performed at 25° C. on a BIACORE 3000 surface plasmon resonance-based optical biosensor (Biacore AB, Uppsala, Sweden). Protein A (Sigma, Basel) was immobilized onto a CM5 sensor chip (Biacore AB, research grade) using standard amine coupling. All data processing and equilibrium binding constant determinations were accomplished with Scrubber© (BioLogic Software, Campbell, Australia, Version 1.1g). […] The equilibrium binding constants KD were calculated using a 1:1 binding model. […]

MAG = target: T2, MAG (Mus musculus, UniProt P20917); assay: NMR second-site screening with spin-labeled first-site ligand 2 (Jahnke method); conditions: H-NMR in the presence of spin-labeled analogue 2; indicates binding proximate (radius of 15 to 20 Å) to the Tempo spin label
T2 sequence (P20917 20-627): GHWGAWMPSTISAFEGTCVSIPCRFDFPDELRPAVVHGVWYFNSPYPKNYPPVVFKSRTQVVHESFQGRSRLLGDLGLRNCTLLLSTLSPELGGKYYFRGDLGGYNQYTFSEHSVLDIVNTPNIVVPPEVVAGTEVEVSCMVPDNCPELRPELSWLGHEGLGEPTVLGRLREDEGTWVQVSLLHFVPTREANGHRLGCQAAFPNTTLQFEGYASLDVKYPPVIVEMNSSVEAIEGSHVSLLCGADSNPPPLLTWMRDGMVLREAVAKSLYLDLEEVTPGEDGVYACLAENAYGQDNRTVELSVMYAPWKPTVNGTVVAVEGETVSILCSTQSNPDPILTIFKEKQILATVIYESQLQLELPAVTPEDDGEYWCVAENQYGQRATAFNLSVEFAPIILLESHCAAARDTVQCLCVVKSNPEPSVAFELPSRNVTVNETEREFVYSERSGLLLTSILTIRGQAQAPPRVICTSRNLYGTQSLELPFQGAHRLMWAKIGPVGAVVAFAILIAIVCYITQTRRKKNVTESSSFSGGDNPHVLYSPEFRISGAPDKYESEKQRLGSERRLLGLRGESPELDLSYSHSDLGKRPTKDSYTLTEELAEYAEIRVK
From the text: Second-site ligands that are affected by the initial lead can be detected in different ways, including NMR based methods that involve, e.g. spin labeling the initial lead. […] Jahnke's method detects the paramagnetic relaxation enhancement on a second ligand caused by a spin-labeled first ligand. The method allows for the detection of “true” second-site ligands, which are ligands that bind to the target (1) simultaneously with and (2) in the proximity of the first ligand (“second-site screening”).
Members of a library composed of 60 divers or sub-libraries thereof, which are drug-like, soluble and synthetically easily available fragments (“second-site ligands”) binding to the target protein were identified based on their shorter relaxation time in H-NMR.

affinity (Fc-MAG(d1-3); surface plasmon resonance experiment)	paramagnetic relaxation enhancement (MAG)	Kd (Fc-MAG(d1-3); SPR, Fc-MAG(d1-3) immobilized by protein A, 25° C., 1:1 binding model)	SMILES
low millimolar range	enhanced relaxation was observed		O=[N+]([O-])c1ccc2[nH]ccc2c1 [compound 15, 5-nitro-1H-indole]
		190 nM	CC(=O)NC1C(O)CC(OCc2cn(CCCc3c[nH]c4ccc([N+](=O)[O-])cc34)nn2)(C(=O)O)OC1C(O)C(O)CNC(=O)c1ccccc1 [compound 27, 1-(5-nitro-1H-indol-3-yl-propyl)-4-{sodium [5-acetamido-9-benzamido-3,5,9-trideoxy-D-glycero-α-D-galacto-2-nonulopyranosynate-2-O-yl}-methyl-1,2,3]-triazole]
